Laboratory results reported in the NIST ThermoML archive (doi:10.1007/s10765-005-5566-6).

Conditions: Gas, Hot wire method

O=C=O [carbon dioxide]
Conditions	thermal conductivity [W/m/K]
298.89 K, 6100 kPa	0.03312
299.02 K, 5760 kPa	0.02896
299.19 K, 5400 kPa	0.02633
299.31 K, 5035 kPa	0.02441
299.5 K, 4555 kPa	0.02268
299.6 K, 3980 kPa	0.02109
299.73 K, 3285 kPa	0.01968
299.85 K, 2555 kPa	0.01861
300.06 K, 1702 kPa	0.01777
300.37 K, 714 kPa	0.01712
302.67 K, 6635 kPa	0.037
302.77 K, 6400 kPa	0.03309
302.8 K, 6025 kPa	0.02905
302.86 K, 5675 kPa	0.02694
302.92 K, 5290 kPa	0.02471
302.97 K, 4870 kPa	0.02339
303.08 K, 4340 kPa	0.02178
303.22 K, 3765 kPa	0.02053
303.51 K, 3160 kPa	0.01961
303.81 K, 2415 kPa	0.01872
303.99 K, 1612 kPa	0.01795
304.21 K, 724 kPa	0.01741
324.87 K, 7960 kPa	0.03214
324.9 K, 7750 kPa	0.03118
324.92 K, 7440 kPa	0.02954
324.95 K, 5960 kPa	0.02501
325.01 K, 6900 kPa	0.02771
325.04 K, 6760 kPa	0.02716
325.1 K, 5575 kPa	0.02434
325.12 K, 6360 kPa	0.02611
325.28 K, 5060 kPa	0.02323
325.42 K, 4605 kPa	0.02254
325.48 K, 4040 kPa	0.02182
325.64 K, 3500 kPa	0.02126
325.81 K, 2880 kPa	0.02052
325.93 K, 2218 kPa	0.02003
326.03 K, 1514 kPa	0.01958
326.17 K, 684 kPa	0.01921
326.26 K, 497 kPa	0.0191
350.83 K, 9985 kPa	0.03324
350.89 K, 8840 kPa	0.03029
350.96 K, 7540 kPa	0.02768
351.12 K, 6040 kPa	0.02551
351.44 K, 4275 kPa	0.02351
351.82 K, 2214 kPa	0.02197
351.87 K, 1820 kPa	0.02181
351.91 K, 1420 kPa	0.02153
352.1 K, 994 kPa	0.02141
352.23 K, 572 kPa	0.02136
375.68 K, 14930 kPa	0.04175
375.71 K, 13880 kPa	0.03888
375.75 K, 12560 kPa	0.03615
375.8 K, 11100 kPa	0.03322
375.85 K, 9640 kPa	0.03079
375.91 K, 8060 kPa	0.02887
376.01 K, 6260 kPa	0.02673
376.11 K, 4240 kPa	0.02504
376.28 K, 2004 kPa	0.02377
376.51 K, 1015 kPa	0.02346
400.85 K, 15010 kPa	0.03843
400.93 K, 13550 kPa	0.03623
400.98 K, 11950 kPa	0.03389
401.03 K, 10340 kPa	0.03194
401.15 K, 8495 kPa	0.03004
401.3 K, 6660 kPa	0.0285
401.42 K, 4600 kPa	0.02712
401.6 K, 2382 kPa	0.02597
401.66 K, 1690 kPa	0.02584
401.74 K, 975 kPa	0.02566
427.12 K, 12000 kPa	0.03429
427.23 K, 9898 kPa	0.0325
427.38 K, 8240 kPa	0.03127
427.51 K, 6160 kPa	0.02966
427.67 K, 3970 kPa	0.02879
427.7 K, 3020 kPa	0.02833
427.95 K, 2050 kPa	0.02812
428.05 K, 1040 kPa	0.02797
